Data as given in patent publication US20190225650A1, “PEPTIDOMIMETIC MACROCYCLES AND USE THEREOF IN REGULATING HIF1ALPHA” (AILERON THERAPEUTICS, INC., priority 2013, published 2019).
Bridge positions count the residues as written; N and C are the ends. Square brackets hold non-standard residues; d marks the D form. Peptide text beside a SMILES is read from it. R8 = C=CCCCCCC[C@@](C)(N)C(=O)O; S5 = C=CCCC[C@](C)(N)C(=O)O; Nle = CCCC[C@H](N)C(=O)O

Molecular target: T1, flag-tagged HIF1α (AA 786-826) / His6-tagged p300 (AA 323-423) complex (Homo sapiens, UniProt Q09472)
T1 construct: His6-tagged p300 (AA 323-423); made in house; host or cells: E. coli (pETDuet vector)
Assay: HIF1α p300 displacement assay (TR FRET, +CHAPS)
Type: binding
Conditions: read-out: IC50 (nM) (HIF1α_p300 Displacement + CHAPS)
Description: The ability of peptides to displace HIF1α c-terminal trans-activation domain from p300-CH was measured by a TR FRET assay. A complex of flag-tagged HIF1α (AA 786-826) and His6-tagged p300 (AA 323-423) was co-expressed using pETDuet vector (EMDMillipore, Bellrica Mass.) and purified from E. coli in the presence of 0.1 mM ZnSO4. The complex was diluted to 300 nM final in complete assay media and competitor peptides were added. The complete assay media contained 150 mM NaCl (Sigma +S5150 or equivalent), 20 mM HEPES pH 7.4 (Boston Bioproducts, Ashland, Mass.; #BB-2076), 7.5 mM CHAPS (Thermo #28300 or equivalent), and 1 mM DTT. Protein and peptide were incubated at room temperature for 1 hour before the addition of anti-Flag-K and anti-6×HIS-D2 (CisBio, Bedford Mass.) HTRF reconstitution buffer (50 mM Phosphate pH 7, 0.8 Potassium Flouride, BSA 0.2%)^1 to a final concentration of 0.5 μM and 4 nM respectively. The reaction continued for an additional two hours at room temperature. The reaction was read on a TECAN F500 plate reader with settings recommended by CisBio. The ratio of donor to acceptor fluorescence was calculated. The resulting data was analyzed with Graphpad Prism 5.0. IC50 values were calculated for both proteins using the One Site Fit-LogIC50 equation and presented in the column “IC50 (nM) (HIF1α_p300 Displacement+CHAPS)” of Table 6. ^1 Cisbio USA, Bedford, Mass.; 61HISDLB (lot 007A), 61FG2KLB (024A), HTRF Buffer (62RB3RDF)

Row | Structure (SMILES) | IC50 [nM]
1 | CCCC[C@@H]1NC(=O)[C@](C)(NC(=O)[C@@H](NC(=O)[C@H](CCC(=O)O)NC(=O)[C@H](CCC(=O)O)NC(=O)[C@H](CC(=O)O)NC(=O)[C@@H](NC(=O)[C@H](CC(N)=O)NC(=O)[C@@H](NC(=O)[C@H](CCC(N)=O)NC(=O)[C@H](CC(=O)O)NC(=O)[C@H](CC(C)C)NC(=O)[C@H](C)NC(=O)[C@H](CCCNC(=N)N)NC(=O)[C@]2(C)CCCC=CCCC[C@](C)(NC(=O)[C@H](CCC(N)=O)NC(=O)[C@H](CC(C)C)NC(=O)[C@H](CC(C)C)NC(C)=O)C(=O)N[C@@H](CCC(=O)O)C(=O)N[C@@H](CCC(=O)O)C(=O)N[C@@H](CC(C)C)C(=O)N2)C(C)C)[C@@H](C)CC)C(C)C)CCCCCCC=CCCC[C@@](C)(C(=O)NCC(N)=O)NC(=O)[C@H](CCC(=O)O)NC(=O)[C@H]([C@@H](C)CC)NC(=O)[C@H](C(C)C)NC(=O)[C@H](CC(C)C)NC(=O)[C@H](CO)NC1=O [SP-314] (Ac-LLQ[S5]EEL[S5]RALDQVNIDEEV[R8][Nle]SLVIE[S5]G-NH2; staple 4-8, 21-28) | > 700
2 | CCCC[C@@H]1NC(=O)[C@H](CC(C)C)NC(=O)[C@](C)(NC(=O)[C@H](CCC(=O)O)NC(=O)[C@H](CCC(=O)O)NC(=O)[C@H](CC(=O)O)NC(=O)[C@@H](NC(=O)[C@H](CC(N)=O)NC(=O)[C@@H](NC(=O)[C@H](CCC(N)=O)NC(=O)[C@H](CC(=O)O)NC(=O)[C@H](CC(C)C)NC(=O)[C@H](C)NC(=O)[C@H](CCCNC(=N)N)NC(=O)[C@]2(C)CCCC=CCCC[C@](C)(NC(=O)[C@H](CCC(N)=O)NC(=O)[C@H](CC(C)C)NC(=O)[C@H](CC(C)C)NC(C)=O)C(=O)N[C@@H](CCC(=O)O)C(=O)N[C@@H](CCC(=O)O)C(=O)N[C@@H](CC(C)C)C(=O)N2)C(C)C)[C@@H](C)CC)CCCCCCC=CCCC[C@@](C)(C(=O)N[C@@H](CCCC)C(=O)NCC(N)=O)NC(=O)[C@H]([C@@H](C)CC)NC(=O)[C@H](C(C)C)NC(=O)[C@H](CC(C)C)NC(=O)[C@H](CO)NC1=O [SP-329] (Ac-LLQ[S5]EEL[S5]RALDQVNIDEE[R8]L[Nle]SLVI[S5][Nle]G-NH2; staple 4-8, 20-27) | > 700
3 | CCCC[C@H](NC(=O)[C@H](CCC(=O)O)NC(=O)[C@@H](NC(=O)[C@@H](NC(=O)[C@H](CC(C)C)NC(=O)[C@]1(C)CCCC=CCCC[C@](C)(NC(=O)[C@H](CCC(=O)O)NC(=O)[C@H](CC(=O)O)NC(=O)[C@@H](NC(=O)[C@H](Cc2ccccc2)NC(C)=O)[C@@H](C)CC)C(=O)N[C@@H](C(C)C)C(=O)N[C@@H](CC(C)C)C(=O)N[C@@H](CCCC)C(=O)N1)C(C)C)[C@@H](C)CC)C(=O)N[C@@H](C)C(=O)N[C@@H](CC(C)C)C(=O)N[C@@H](CCCCN)C(=O)N[C@@H](CCCCN)C(N)=O [SP-133] (Ac-FIDE[S5]VL[Nle][S5]LVIE[Nle]ALKK-NH2; staple 5-9) | > 700

Continued, values first:

Row | IC50 [nM] | Structure (SMILES)
4 | > 700 | CCCC[C@H](NC(=O)[C@H](CCC(=O)O)NC(=O)[C@@H](NC(=O)[C@@H](NC(=O)[C@H](CC(C)C)NC(=O)[C@]1(C)CCCC=CCCC[C@](C)(NC(=O)[C@H](CCC(=O)O)NC(=O)[C@H](CC(=O)O)NC(=O)[C@@H](NC(=O)[C@H](Cc2ccccc2)NC(C)=O)[C@@H](C)CC)C(=O)N[C@@H](C(C)C)C(=O)N[C@@H](CC(C)C)C(=O)N[C@@H](CCCC)C(=O)N1)C(C)C)[C@@H](C)CC)C(=O)N[C@@H](C)C(=O)N[C@@H](CC(C)C)C(=O)N[C@@H](CCCCN)C(N)=O [SP-132] (Ac-FIDE[S5]VL[Nle][S5]LVIE[Nle]ALK-NH2; staple 5-9)
5 | > 700 | CC[C@H](C)[C@H](NC(=O)[C@H](Cc1ccccc1)NC(C)=O)C(=O)N[C@@H](CC(=O)O)C(=O)N[C@@H](CCC(=O)O)C(=O)N[C@]1(C)CCCCCCC=CCCC[C@@](C)(C(=O)N[C@@H](CCC(=O)O)C(=O)N[C@@H](CCSC)C(=O)NCC(=O)N[C@@H](CC(C)C)C(N)=O)NC(=O)[C@H](C(C)C)NC(=O)[C@H](CC(C)C)NC(=O)[C@H](CO)NC(=O)[C@H](CCSC)NC(=O)[C@H](CC(C)C)NC(=O)[C@H](C(C)C)NC1=O [SP-187] (Ac-FIDE[R8]VLMSLV[S5]EMGL-NH2; staple 5-12)
